Measured values reported in patent US20250197374A1, “WEE1 DEGRADING COMPOUNDS AND USES THEREOF” (BRISTOL-MYERS SQUIBB COMPANY, priority 2023, published 2025).

Assays:
Type in all cases: cell-based
MKN45 cells = test: MKN45 cell proliferation assay (Cell-Titer-Glo, 120 hr); settings: for EC50: Homo sapiens, MKN-45, 120 h, read-out: MKN45 Cell Prolif. 120 hr EC50; for MKN45 Cell Prolif. 120 hr YMin (%): minimal percent of DMSO control observed
Method in brief: (§1)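 MKN45 (400/well) and MDA-MB-231 (800/well) cells in RPMI with 10% FBS were exposed to 10-point half-log doses from 1 or 10 uM (0.1% DMSO) for 120 h at 37 °C. Viability was read by CellTiter-Glo luminescence. EC50 came from blank-subtracted, %DMSO four-parameter fits, with Ymin-obs as the lowest %DMSO observed.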

MDA-MB-231 cells = test: MDA-MB-231 cell proliferation assay (Cell-Titer-Glo, 120 hr); settings: for EC50: Homo sapiens, MDA-MB-231, 120 h, read-out: MDA-MB 231 Cell Prolif. 120 hr EC50; for MDA-MB 231 Cell Prolif. 120 hr YMin (%): minimal percent of DMSO control observed
Method in brief: as §1

WEE1 = biological target: T1, WEE1 (Homo sapiens, UniProt P30291+Q96SW2); test: WEE1-ePL degradation assay (293T-LentiX, InCELL Hunter luminescence, 4 hr); settings: for 293T-LentiX WEE1-ePL Degradation 4 hr YMin (%): lower limit of fit, % of DMSO control signal remaining; for DC50: LentiX-HEK293T cells expressing WEE1-ePL, 4 hr incubation, read-out: 293T-LentiX WEE1-ePL Degradation 4 hr EC50
T1 construct: C-terminal ePL-tagged (DiscoverX, Fremont, CA) full-length WEE1 expression construct; expressed in transfected cells; host or cells: LentiX-HEK293T (Invitrogen), lentivirally transduced; the cells also over-express GSPT1-GN
Method in brief: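 LentiX-HEK293T cells expressing C-terminally ePL-tagged full-length WEE1 plus non-degradable GSPT1-GN (G575N, N-terminal 158 aa truncated). Treated 4 h at 37 °C with a 10-point, 3-fold series from 1 or 10 µM, then read by InCELL Hunter luminescence. EC50 from four-parameter logistic fit, Ymax set by DMSO control.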

T1 sequence (P30291 whole entry): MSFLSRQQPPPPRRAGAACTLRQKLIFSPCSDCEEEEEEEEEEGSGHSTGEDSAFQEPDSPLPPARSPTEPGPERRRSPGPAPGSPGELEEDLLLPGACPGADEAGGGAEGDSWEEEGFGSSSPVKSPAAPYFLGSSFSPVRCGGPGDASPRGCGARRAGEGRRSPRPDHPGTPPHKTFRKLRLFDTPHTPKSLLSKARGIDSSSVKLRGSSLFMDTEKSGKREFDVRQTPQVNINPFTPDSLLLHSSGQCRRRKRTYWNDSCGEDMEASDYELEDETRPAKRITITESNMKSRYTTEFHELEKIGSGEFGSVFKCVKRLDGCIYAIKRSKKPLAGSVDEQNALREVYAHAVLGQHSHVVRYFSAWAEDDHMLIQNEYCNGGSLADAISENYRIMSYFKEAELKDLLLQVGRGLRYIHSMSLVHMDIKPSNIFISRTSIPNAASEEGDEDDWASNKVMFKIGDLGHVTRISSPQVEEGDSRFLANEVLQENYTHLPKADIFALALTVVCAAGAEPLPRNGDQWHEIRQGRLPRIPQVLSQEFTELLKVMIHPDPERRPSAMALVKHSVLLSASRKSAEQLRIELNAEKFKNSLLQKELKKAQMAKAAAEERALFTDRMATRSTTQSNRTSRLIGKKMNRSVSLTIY
T1 sequence (Q96SW2 whole entry): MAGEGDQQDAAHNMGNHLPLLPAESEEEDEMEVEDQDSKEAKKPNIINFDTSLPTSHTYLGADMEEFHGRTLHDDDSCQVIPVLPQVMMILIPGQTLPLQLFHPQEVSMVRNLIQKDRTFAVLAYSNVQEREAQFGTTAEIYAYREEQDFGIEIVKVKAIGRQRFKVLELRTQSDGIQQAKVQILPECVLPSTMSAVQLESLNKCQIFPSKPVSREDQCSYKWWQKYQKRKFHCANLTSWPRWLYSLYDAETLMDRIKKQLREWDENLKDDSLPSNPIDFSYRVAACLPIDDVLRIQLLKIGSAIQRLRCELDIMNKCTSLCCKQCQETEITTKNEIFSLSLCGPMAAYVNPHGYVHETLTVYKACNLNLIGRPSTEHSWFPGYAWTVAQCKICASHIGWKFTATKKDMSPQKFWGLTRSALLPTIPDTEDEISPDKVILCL
T1 sequence (Q16531 whole entry partner): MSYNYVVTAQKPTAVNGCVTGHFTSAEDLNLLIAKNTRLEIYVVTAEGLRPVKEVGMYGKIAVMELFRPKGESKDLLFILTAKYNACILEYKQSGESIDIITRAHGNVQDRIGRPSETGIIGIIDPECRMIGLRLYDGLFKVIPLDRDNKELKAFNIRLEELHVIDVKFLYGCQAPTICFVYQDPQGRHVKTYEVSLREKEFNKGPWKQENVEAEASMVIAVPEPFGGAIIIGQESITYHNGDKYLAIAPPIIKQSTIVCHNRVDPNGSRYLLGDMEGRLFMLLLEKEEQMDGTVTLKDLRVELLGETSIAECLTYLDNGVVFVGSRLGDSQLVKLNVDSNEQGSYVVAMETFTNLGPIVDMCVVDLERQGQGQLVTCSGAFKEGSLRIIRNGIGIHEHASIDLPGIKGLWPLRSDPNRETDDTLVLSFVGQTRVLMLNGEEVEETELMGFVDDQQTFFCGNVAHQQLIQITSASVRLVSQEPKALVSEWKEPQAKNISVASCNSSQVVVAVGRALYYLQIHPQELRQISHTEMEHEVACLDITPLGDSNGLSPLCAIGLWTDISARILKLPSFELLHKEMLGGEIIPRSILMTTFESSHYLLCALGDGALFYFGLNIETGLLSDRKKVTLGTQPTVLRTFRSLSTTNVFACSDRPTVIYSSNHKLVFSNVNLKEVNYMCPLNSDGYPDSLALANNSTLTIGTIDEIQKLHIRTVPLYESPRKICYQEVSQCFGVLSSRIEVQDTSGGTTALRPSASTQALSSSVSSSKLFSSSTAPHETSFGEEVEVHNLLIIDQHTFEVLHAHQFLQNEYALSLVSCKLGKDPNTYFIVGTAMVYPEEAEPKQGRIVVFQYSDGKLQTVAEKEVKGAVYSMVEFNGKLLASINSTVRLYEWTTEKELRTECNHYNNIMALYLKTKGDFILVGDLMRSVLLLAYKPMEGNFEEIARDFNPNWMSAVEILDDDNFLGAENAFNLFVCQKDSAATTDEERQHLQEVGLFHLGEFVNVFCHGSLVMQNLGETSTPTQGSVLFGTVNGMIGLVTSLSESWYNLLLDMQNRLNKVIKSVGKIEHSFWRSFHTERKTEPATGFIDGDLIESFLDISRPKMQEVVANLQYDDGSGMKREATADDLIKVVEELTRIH

Row | SMILES | EC50 (MKN45 cells) | EC50 (MDA-MB-231 cells) | 293T-LentiX WEE1-ePL Degradation 4 hr YMin (%) (WEE1) | DC50 (WEE1) | MKN45 Cell Prolif. 120 hr YMin (%) (MKN45 cells) | MDA-MB 231 Cell Prolif. 120 hr YMin (%) (MDA-MB-231 cells)
1 | O=C1CC[C@H](N2Cc3cc(O[C@@H]4CN(Cc5cc(F)c6nc(C7CCOCC7)ccc6c5)C[C@H]4c4ccccc4)ccc3C2=O)C(=O)N1 (relative stereo) [Example 116, (S)-3-(5-(((3S*,4R*)-1-((8-fluoro-2-(tetrahydro-2H-pyran-4-yl)quinolin-6-yl)methyl)-4-phenylpyrrolidin-3-yl)oxy)-1-oxoisoindolin-2-yl)piperidine-2,6-dione] | 1 nM | 2590 nM | 85.0% |  | 83.5% | 89.1%
2 | COC[C@@H]1CN(Cc2cc3ccc(C4CCOCC4)nc3cn2)C[C@H]1Oc1ccc2c(c1)CN([C@H]1CCC(=O)NC1=O)C2=O [Example 135, (3S)-3-(5-{[(3S,4S)-4-(methoxymethyl)-1-{[2-(oxan-4-yl)-1,7-naphthyridin-6-yl]methyl}pyrrolidin-3-yl]oxy}-1-oxo-2,3-dihydro-1H-isoindol-2-yl)piperidine-2,6-dione] | 1 nM | 31 nM | 35.7% | 1 nM | 8.8% | 55.6%
3 | COC[C@@H]1CN(Cc2cc3ccc(N4CCN(CC(F)(F)F)CC4)cc3cn2)C[C@H]1Oc1ccc2c(c1)CN([C@H]1CCC(=O)NC1=O)C2=O [Example 39, (3S)-3-(5-{[(3S,4S)-4-(methoxymethyl)-1-({7-[4-(2,2,2-trifluoroethyl)piperazin-1-yl]isoquinolin-3-yl}methyl)pyrrolidin-3-yl]oxy}-1-oxo-2,3-dihydro-1H-isoindol-2-yl)piperidine-2,6-dione] | 1 nM | 25 nM | 31.6% |  | 10.3% | 41.6%
4 | COC[C@@H]1CN(Cc2cc(F)c3nc(C(C)(C)O)ncc3c2)C[C@H]1Oc1ccc2c(c1)CN([C@H]1CCC(=O)NC1=O)C2=O [Example 41, (3S)-3-(5-{[(3S,4S)-1-{[8-fluoro-2-(2-hydroxypropan-2-yl)quinazolin-6-yl]methyl}-4-(methoxymethyl)pyrrolidin-3-yl]oxy}-1-oxo-2,3-dihydro-1H-isoindol-2-yl)piperidine-2,6-dione] | 10 nM | 151 nM | 30.3% | 22 nM | 12.5% | 39.1%
5 | COC(C)(C)[C@@H]1CN(Cc2ccc3nc(C4CCOCC4)ccc3c2)C[C@H]1Oc1ccc2c(c1)CN([C@H]1CCC(=O)NC1=O)C2=O (racemic) [Example 138, (3S)-3-(5-((4-(2-methoxypropan-2-yl)-1-((2-(tetrahydro-2H-pyran-4-yl)quinolin-6-yl)methyl)pyrrolidin-3-yl)oxy)-1-oxoisoindolin-2-yl)piperidine-2,6-dione] | 348 nM | ≥ 10300 nM | 48.1% | 3 nM | 80.2% | 94.6%
6 | COC[C@@H]1CN(Cc2cc(F)c3nc(COC4CCOCC4)ncc3c2)C[C@H]1Oc1ccc2c(c1)CN([C@H]1CCC(=O)NC1=O)C2=O [Example 42, (3S)-3-(5-{[(3S,4S)-1-({8-fluoro-2-[(oxan-4-yloxy)methyl]quinazolin-6-yl}methyl)-4-(methoxymethyl)pyrrolidin-3-yl]oxy}-1-oxo-2,3-dihydro-1H-isoindol-2-yl)piperidine-2,6-dione] | 9 nM | 122 nM | 31.5% | 8 nM | 12.2% | 33.0%
7 | COC[C@@H]1CN(Cc2cc(F)c3nc(C4CCN(C(C)=O)C4)ccc3c2)C[C@H]1Oc1ccc2c(c1)CN([C@H]1CCC(=O)NC1=O)C2=O (relative stereo) [Example 67, rel-(3S)-3-(5-(((3S,4S)-1-((2-(1-acetylpyrrolidin-3-yl)-8-fluoroquinolin-6-yl)methyl)-4-(methoxymethyl)pyrrolidin-3-yl)oxy)-1-oxoisoindolin-2-yl)piperidine-2,6-dione] | 1 nM | 28 nM | 29.6% | 1 nM | 12.3% | 37.7%
8 | O=C1CC[C@H](N2Cc3cc(O[C@@H]4CN(Cc5cc(F)c6nc(C7CCOCC7)ccc6c5)C[C@H]4CO)ccc3C2=O)C(=O)N1 [Example 139, (3S)-3-(5-{[(3S,4S)-1-{[8-fluoro-2-(oxan-4-yl)quinolin-6-yl]methyl}-4-(hydroxymethyl)pyrrolidin-3-yl]oxy}-1-oxo-2,3-dihydro-1H-isoindol-2-yl)piperidine-2,6-dione] | 5 nM | 133 nM | 20.2% | 2 nM | 10.3% | 65.9%
9 | COC[C@@H]1CN(Cc2ccc3nc(N4C[C@@H]5CCO[C@@H]5C4)ncc3c2)C[C@H]1Oc1ccc2c(c1)CN([C@H]1CCC(=O)NC1=O)C2=O (single isomer, unassigned) [Example 18, (S)-3-(5-(((3S,4S)-1-((2-((3aS*,6aS*)-hexahydro-5H-furo[2,3-c]pyrrol-5-yl)quinazolin-6-yl)methyl)-4-(methoxymethyl)pyrrolidin-3-yl)oxy)-1-oxoisoindolin-2-yl)piperidine-2,6-dione] | 7 nM | 73 nM | 29.8% | 3 nM | 10.1% | 28.4%

Compounds with a lower EC50 (MDA-MB-231 cells), results first:

Row | EC50 (MKN45 cells) | EC50 (MDA-MB-231 cells) | 293T-LentiX WEE1-ePL Degradation 4 hr YMin (%) (WEE1) | DC50 (WEE1) | SMILES | MKN45 Cell Prolif. 120 hr YMin (%) (MKN45 cells) | MDA-MB 231 Cell Prolif. 120 hr YMin (%) (MDA-MB-231 cells)
10 | 1 nM | 14 nM | 26.4% | 2 nM | COC[C@@H]1CN(Cc2cc(F)c3nc(C4CCN(CC(F)(F)F)C4)ccc3c2)C[C@H]1Oc1ccc2c(c1)CN([C@H]1CCC(=O)NC1=O)C2=O (relative stereo) [Example 68, rel-(3S)-3-(5-(((3S,4S)-1-((8-fluoro-2-(1-(2,2,2-trifluoroethyl)pyrrolidin-3-yl)quinolin-6-yl)methyl)-4-(methoxymethyl)pyrrolidin-3-yl)oxy)-1-oxoisoindolin-2-yl)piperidine-2,6-dione] | 8.9% | 17.4%
11 | 1 nM | 18 nM | 28.9% | 1 nM | COC[C@@H]1CN(Cc2cc(F)c3nc(C4CCCOC4)ccc3c2)C[C@H]1Oc1ccc2c(c1)CN([C@H]1CCC(=O)NC1=O)C2=O (relative stereo) [Example 70, rel-(3S)-3-(5-{[(3S,4S)-1-{[8-fluoro-2-(oxan-3-yl)quinolin-6-yl]methyl}-4-(methoxymethyl)pyrrolidin-3-yl]oxy}-1-oxo-2,3-dihydro-1H-isoindol-2-yl)piperidine-2,6-dione] | 11.9% | 26.1%
12 |  | 12 nM | 28.0% | 1 nM | COC[C@@H]1CN(Cc2cc3ccc(C4CCC(C(C)(C)O)CC4)cc3cn2)C[C@H]1Oc1ccc2c(c1)CN([C@H]1CCC(=O)NC1=O)C2=O (relative stereo) [Example 112, rel-(S)-3-(5-(((3S,4S)-1-((7-(4-(2-hydroxypropan-2-yl)cyclohexyl)isoquinolin-3-yl)methyl)-4-(methoxymethyl)pyrrolidin-3-yl)oxy)-1-oxoisoindolin-2-yl)piperidine-2,6-dione] | 8.7% | 25.2%
13 |  | 9 nM | 31.2% |  | COC[C@@H]1CN(Cc2cc(F)c3nc(C4CCC(O)CC4)ccc3c2)C[C@H]1Oc1ccc2c(c1)CN([C@H]1CCC(=O)NC1=O)C2=O (relative stereo) [Example 54, rel-(S)-3-(5-(((3S,4S)-1-((8-fluoro-2-(4-hydroxycyclohexyl)quinolin-6-yl)methyl)-4-(methoxymethyl)pyrrolidin-3-yl)oxy)-1-oxoisoindolin-2-yl)piperidine-2,6-dione] | 10.5% | 48.9%
14 | 1 nM | 14 nM | 27.9% | 1 nM | COC[C@@H]1CN(Cc2cc(F)c3ncc(N4CCOCC4)cc3c2)C[C@H]1Oc1ccc2c(c1)CN([C@H]1CCC(=O)NC1=O)C2=O [Example 30, (S)-3-(5-(((3S,4S)-1-((8-fluoro-3-morpholinoquinolin-6-yl)methyl)-4-(methoxymethyl)pyrrolidin-3-yl)oxy)-1-oxoisoindolin-2-yl)piperidine-2,6-dione] | 7.8% | 12.7%
